# Reference: PMC6297231 (Nature Communications, 2018)
# Where two headings read alike, the source gives them in different places.
# Key:
# Format in all cases: cell-based
# Sudhl4 = assay: Cell viability assay; conditions: Homo sapiens, SU-DHL-4, 24 h; Sudhl4 (NHL); read-out: AZD5991 24h GI50
# Procedure: (§1) Cells were plated at 3000 cells/well in 384-well white plates in corresponding cell growth media. […] Caspase-3/7 activation was subsequently determined using a Caspase-Glo 3/7 Reagent (Promega) and viability was assayed using the CellTiter-Glo Reagent (Promega) as described in manufacturer’s instructions. Dose–response curves for caspase-3/7 activation and viability were plotted and analyzed (including EC50 and GI50 determination) using GraphPad Prism.
# LP1 = assay: Cell viability assay; conditions: Homo sapiens, LP-1, 24 h; LP1 (MM); read-out: AZD5991 24h GI50
# Procedure: as §1
# CMK = assay: Caspase-3/7 activation assay; conditions: Homo sapiens, 6 h
# Procedure: as §1
# Sudhl5 = assay: Cell viability assay; conditions: Homo sapiens, SU-DHL-5, 24 h; Sudhl5 (NHL); read-out: AZD5991 24h GI50
# Procedure: as §1
smiles,measurement,setting,value
"Cc1c2c(nn1C)CSCc1cc(n(C)n1)CSc1cc(c3ccccc3c1)OCCCc1c(C(=O)O)n(C)c3c-2c(Cl)ccc13 (atropisomer, axis not shown; (Ra)) [(Ra)-7]",GI50,Sudhl4,0.127 µM
same,GI50,LP1,0.258 µM
same,EC50,"CMK; read-out: 6h caspase EC50, CMK, single agent",> 0.333 µM
same,EC50,"CMK; read-out: AZD5991 6h EC50, CMK (AML), caspase 3/7 activation",> 30 µM
same,GI50,Sudhl5,0.018 µM
